Data taken from patent US5516936A, “Inhibitors of kynureninase” (University of Georgia Research Foundation, Inc., priority 1993, dated 1996).
“Also recorded” adds a separate entry of the source. Read-outs that look alike come from different tables or passages of the source.

What was measured:
[1] = test system: kynureninase; settings: Takeuchi et al. (1980); cited from earlier work
[2] = molecular target: T1, Kynureninase (Pseudomonas fluorescens, UniProt P83788); assay: Reactivity of dihydrokynurenine and L-kynurenine with bacterial kynureninase; format: biochemical; settings: pH 8.0, 25°; for reactivity with kynureninase (in words): o-aminobenzaldehyde formation at 360 nm
T1 construct: Bacterial kynureninase was prepared from cells of Pseudomonas fluorescens; endogenous in cells; partially purified by DEAE-cellulose and ammonium sulfate
T1 sequence (P83788 1-416): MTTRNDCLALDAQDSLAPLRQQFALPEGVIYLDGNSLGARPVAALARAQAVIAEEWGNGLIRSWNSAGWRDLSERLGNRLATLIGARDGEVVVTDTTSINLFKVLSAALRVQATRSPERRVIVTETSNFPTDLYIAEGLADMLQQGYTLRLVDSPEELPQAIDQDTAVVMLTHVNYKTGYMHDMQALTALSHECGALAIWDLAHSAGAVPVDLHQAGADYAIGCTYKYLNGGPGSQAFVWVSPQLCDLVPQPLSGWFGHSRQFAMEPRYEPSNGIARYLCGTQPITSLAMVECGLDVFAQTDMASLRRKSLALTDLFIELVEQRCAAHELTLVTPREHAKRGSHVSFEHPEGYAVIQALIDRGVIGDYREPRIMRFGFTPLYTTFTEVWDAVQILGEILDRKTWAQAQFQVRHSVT
Experimental: (§1) Bacterial kynureninase was prepared from cells of Pseudomonas fluorescens (ATCC 11250, for example) essentially as described by .Hayaishi and Stanier (1952) J. Biol. Chem. 195:735-740. Cells were grown on a minimal medium containing 0.1% L-tryptophan as the sole carbon and nitrogen source.
From 100 1 of medium, grown for 18 h at 30° C. […] The cells were suspended in 1 of 0.01M potassiumphosphate, pH 7.0, and disrupted by 2 passages through a Manton-Gaulin homogenizer. After centrifugation of the cell extract for 1 h at 10000 g, the enzyme was partially purified by ion-exchange chromatography on DEAE-cellulose and ammonium sulfate precipitation.
The reactivity of the two dihydrokynurenines with kynureninase in 0.1M potassium phosphate buffer, pH 8.0, at 25° was examined. Reaction was followed by the appearance of o-aminobenzaldehyde, as determined spectrophotometrically by the increase in absorbance at 360 nm (See Tanizawa and Soda (1979) Biochem. (Tokyo) 86:1199-1209, which is incorporated by reference herein).

[3] = molecular target: T2, rat liver kynureninase (Rattus norvegicus, UniProt P70712); assay: Inhibition of rat liver kynureninase (cysteine conjugate β-lyase activity with S-(2-benzothiazolyl)cysteine); format: biochemical; settings: S-(2-benzothiazolyl)cysteine as substrate
T2 construct: host or cells: rat liver
T2 sequence (P70712 1-464): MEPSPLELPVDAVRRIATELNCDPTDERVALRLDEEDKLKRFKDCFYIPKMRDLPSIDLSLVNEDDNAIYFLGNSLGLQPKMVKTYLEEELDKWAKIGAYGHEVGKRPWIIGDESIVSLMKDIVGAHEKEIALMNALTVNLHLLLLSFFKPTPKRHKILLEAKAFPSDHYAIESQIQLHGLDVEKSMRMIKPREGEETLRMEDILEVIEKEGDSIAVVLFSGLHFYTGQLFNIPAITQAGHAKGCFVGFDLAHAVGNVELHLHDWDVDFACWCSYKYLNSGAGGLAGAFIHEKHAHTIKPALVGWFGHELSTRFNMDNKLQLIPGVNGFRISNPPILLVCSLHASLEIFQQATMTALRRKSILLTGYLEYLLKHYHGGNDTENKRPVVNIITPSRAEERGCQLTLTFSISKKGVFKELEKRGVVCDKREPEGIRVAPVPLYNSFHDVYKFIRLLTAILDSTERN
Experimental: Inhibition of mammalian kynureninase can be measured using several different assays for enzyme activity. Rat liver kynureninase is obtained from homogenization of rat liver, followed by precipitation with (NH4)2 SO4, as described by Stevens, J. L., J. Biol. Chem. (1985) 260:7945-7950, which is incorporated by reference herein. The activity of rat liver kynureninase was assessed by measurement of the cysteine conjugate β-lyase activity, as described by Stevens (supra), with S-(2-benzothiazolyl)cysteine, a nonphysiological chromophoric substrate. Inhibition of kynureninase by the dihydrokynurenine diastereomers was assessed with respect to reaction with that substrate.

[4] = molecular target: T1, Kynureninase; assay: Inhibition of bacterial kynureninase by dihydrokynurenine; format: biochemical; settings: for inhibition of reaction with L-kynurenine (in words): bacterial kynureninase; for Ki value (comparison in words): compared between dihydrokynurenine diastereomers
Experimental: As an extension of these mechanistic studies, the reactivities of dihydrokynurenine diastereomers were examined. […] This increased affinity of (αS,γS)-dihydrokynurenine is characteristic of mechanism-based, or "transition-state analogue" inhibitors.
as §1
(§2) From 100 1 of medium, grown for 18 h at 30° C. 230 g of wet cell paste was obtained. The cells were suspended in 1 of 0.01M potassiumphosphate, pH 7.0, and disrupted by 2 passages through a Manton-Gaulin homogenizer. After centrifugation of the cell extract for 1 h at 10000 g, the enzyme was partially purified by ion-exchange chromatography on DEAE-cellulose and ammonium sulfate precipitation.
Inhibition of kynureninase by dihydrokynurenine was measured by including the potential inhibitor in the enzyme assay mixture (see Example 1 and Tanzawa and Soda (1979) supra) and determining the apparent Km for L-kynurenine (the preferred substrate of bacterial kynurenine) in the absence and presence of the potential inhibitor. Ki values were then calculated using the standard equation: […]
Inhibition of kynureninase by the (αS,γR)- and (αS,γS)-diastereomers of dihydrokynurenine was examined and Ki 's were determined. […] The Ki value for the […] was lower than for the (αS,γR)-diastereomer.

[5] = test system: cystsine lyase; settings: cited from earlier work
[6] = test system: rat renal C-S lyase; settings: kidney slice methodology; cited from earlier work
[7] = molecular target: bacterial kynureninase; settings: Kishore (1984), cited from earlier work
[8] = molecular target: T1, Kynureninase; assay: Competitive inhibition of kynureninase by S-aryl cysteines and S-aryl cysteine sulfones; format: biochemical; settings: Table 1; competitive inhibition vs L-kynurenine, pH 7.8, 25° C.; footnote 1: 0.07 is an upper limit; read-out: Ki
Experimental: as §1, §2
Kynureninase activity was measured at 25° C. by following the decrease in absorbance at 360 nm (ε=-4500M^-1 cm^-1). A typical assay mixture contained 0.4 mM L-kynurenine in 0.04M potassium phosphate, pH 7.8, containing 40 μM pyridoxal-5'-phosphate, at 25° C. The reactions of S-aryl cysteines and S-aryl cysteine sulfones with kynureninase were performed using a spectrophotometric coupled assay with lactate dehydrogenase and NADH, by monitoring a decrease in absorbance due to pyruvate formation. A typical assay mixture contained 30 μl lactate dehydrogenase solution (2 mg/ml), 0.1 mM NADH, 40 μM pyridoxal-5'-phosphate, 0.04M tris.HCl buffer, pH 7.8, with varying concentrations of the compounds. The competitive inhibition of these compounds was measured by variation of L-kynurenine concentrations at several fixed values of the inhibitor. Km and Vmax values were calculated by fitting of initial rate data to the Michaelis-Menten equation with ENZFITTER (Elsevier) on a Z-286 personal computer. KI values were determined from the equation:
v=Vmax[S]/ (Km (1+[I]/Ki)+[S]

[9] = test system: cystsine conjugate β-lyase; settings: cited from earlier work
[10] = test system: bacterial kynureninase; settings: cited from earlier work; for inhibition of bacterial kynureninase (in words): Tanizawa and Soda (1979)

## Nc1c(O)cccc1C(=O)O [3-hydroxyanthranilate, 3-hydroxyanthranilic acid]
[1]
  inhibition of kynureninase (in words): inhibit the enzyme

## Nc1ccccc1[C@H](O)C[C@H](N)C(=O)O [(αS,γR)-dihydrokynurenine, (αS;γR)-α,2-diamino-γ-hydroxybenzenebutanoic acid]
[2]; 0.1M potassium phosphate buffer
  rate of reaction relative to L-kynurenine: about 5%
[2]
  reactivity with kynureninase (in words): reacted slowly with kynureninase
[2]; listed as (αS,γR)-Dihydrokynurenine
  reactivity with kynureninase (in words): slow substrate
[3]
  inhibition of rat liver kynureninase (in words): inhibit the reaction of rat liver kynureninase
[4]; listed as (αS,γR)-diastereomer
  inhibition of reaction with L-kynurenine (in words): strongly inhibited; also recorded: competitive inhibitors
[4]
  Ki value (comparison in words): lower
[4]; competitive with respect to L-kynurenine
  Ki: 5 µM

## Nc1ccccc1[C@@H](O)C[C@H](N)C(=O)O [(αS,γS)-dihydrokynurenine, (αS,γS)-α,2-diamino-γ-hydroxybenzenebutanoic acid]
[2]
  reactivity with kynureninase (in words): not a substrate for the kynureninase
[2]; listed as (αS,γS) diastereomer
  reactivity with kynureninase (in words): unreactive
[2]; listed as (αS,γS)-diastereomer
  reactivity with kynureninase (in words): No significant reaction
[3]; listed as (αS,γS) diastereomer
  inhibition of rat liver kynureninase (in words): stronger competitive inhibitor
[3]; listed as (αS,δS)
  inhibition of rat liver kynureninase (in words): inhibit the reaction of rat liver kynureninase
[3]; rat liver kynureninase
  Ki: ~690 µM
[4]
  binding relative to L-kynurenine (in words): binds about more tightly than does L-kynurenine
  inhibition of reaction with L-kynurenine (in words): competitive inhibitor of the enzyme
  Ki value (comparison in words): lower
[4]; listed as (αS,γS)-diastereomer
  inhibition of reaction with L-kynurenine (in words): strongly inhibited; also recorded: competitive inhibitors

## NO [H2 NOH]
[5]
  inhibition of cystsine lyase (in words): significantly inhibited

## CC(=O)N[C@@H](CSc1c([N+](=O)[O-])cccc1[N+](=O)[O-])C(=O)O [N-acetyl-S-(2,6-dinitrophenyl)-L-cysteine]
[6]
  inhibition of C-S lyase (in words): inhibit

## CC(=O)N[C@@H](CSc1ccc([N+](=O)[O-])cc1Cl)C(=O)O [N-acetyl-S-(2-chloro-4-nitrophenyl)-L-cysteine]
[6]
  inhibition of C-S lyase (in words): inhibit

## CC(=O)N[C@@H](CSc1ccc([N+](=O)[O-])c([N+](=O)[O-])c1)C(=O)O [N-acetyl-S-(3,4-dinitrophenyl)-L-cystsine]
[6]
  inhibition of C-S lyase (in words): inhibit

## N[C@@H](CSc1c([N+](=O)[O-])cccc1[N+](=O)[O-])C(=O)O [S-(2,6-dinitrophenyl)-L-cysteine]
[6]
  inhibition of C-S lyase (in words): inhibit

## N[C@@H](CSc1ccccc1[N+](=O)[O-])C(=O)O [S-(2-nitrophenyl)-L-cysteine]
[6]
  inhibition of C-S lyase (in words): inhibit
[7]
  Ki: 100 µM
  inactivation of kynureninase (in words): inactivates kynureninase; also recorded: most efficient suicide substrate at low concentrations; also recorded: suicide inhibitor of kynureninase
  reaction with kynureninase (in words): react with kynureninase to give pyruvate and ammonia
[7]; listed as S-(2-nitrophenyl)-L-cystsine
  inactivation of kynureninase (in words): inactivated kynureninase
[8]
  Ki: 100 µM

## N[C@@H](CSc1ccc([N+](=O)[O-])cc1)C(=O)O [S-(4-nitrophenyl)-L-cysteine]
[6]
  inhibition of C-S lyase (in words): inhibit

## N[C@@H](CSCc1ccccc1)C(=O)O [S-benzyl-L-cysteine]
[9]
  β-lyase-mediated metabolism (in words): cleaved to give pyruvate

## NOCC(=O)O [aminooxyacetic acid]
[5]
  inhibition of cystsine lyase (in words): most inhibitory derivative tested
[9]
  inhibition of β-lyase (in words): inhibitor of the β-lyase

## Nc1ccccc1C(=O)O [anthranilic acid]
[1]
  inhibition of kynureninase (in words): inhibit the enzyme
[10]
  inhibition of bacterial kynureninase (in words): inhibitors

## Nc1ccccc1C=O [o-aminobenzaldehyde]
[10]
  inhibition of bacterial kynureninase (in words): strongly inhibited
[10]; non-competitive inhibition
  Ki: 6.5 µM

## O=Cc1ccccc1[N+](=O)[O-] [o-nitrobenzaldehyde]
[10]
  inhibition of bacterial kynureninase (in words): inhibitors
